The values below come from patent US10874685B2, “Pancreatic cancer therapy and diagnosis” (Deutsches Krebsforschungszentrum Stiftung des Öffentlichen …, priority 2014, dated 2020).

Experiment [1] concerns PANC-1, MIAPaCa-2 and AsPC-1 cell lines. The experiment can be described thus: PDAC cell line growth curves under combination therapy. Type of experiment: cell-based, human. The conditions noted are these: over time. From the text: FIGS. 11A and 11B show PDAC cell line growth curves following combination therapy with DRD2 antagonists, 2-deoxy-D-glucose, and atorvastatin. Percentage cell growth shown on the y-axis following treatment with control (blue line), pimozide (Pim, gray line), atorvastatin and 2-deoxy-D-glucose (ATR+2-DG, red line) and combination of Pim and ATR+2-DG (green line) over time in PANC-1 (top), MIAPaCa-2 (middle) and AsPC-1 (bottom) cell lines (FIG. 11A). Haloperidol (Hal, gray line) is used as the DRD2 antagonist for use alone or in combination with ATR+2-DG as described in A (FIG. 11B). Dosage are indicated for each cell line.
PDAC cell proliferation was measured during pharmacological inhibition of DRD2 alone and in combination with blockade of glycolysis and cholesterol synthesis. To suppress glycolysis, 2-DG, a glucose analog which is a competitor inhibitor of glucose metabolism, was used. To inhibit cholesterol synthesis, atorvastatin (ATR), a competitive inhibitor of 3-hydroxy-3-methylglutaryl-coenzyme A (HMG-CoA) reductase in the cholesterol biosynthesis pathway was used.

Experiment [2] has as its system Fibroblast (non-cancer cells). Briefly: Sulforhodamine B (SRB) cytotoxicity assay on fibroblasts. Type of experiment: cell-based, human. The conditions noted are these: increasing concentration, 72 h. The procedure: PANC-1, CFPAC-1, CAPAN-1, MIAPaCa-2, BXPC-3 and fibroblast cells were seeded for 24 h and were exposed to increasing concentration of Pimozide and vehicle for 72 h (FIG. 3A). The same procedure was followed for treatment of cancer cell lines with L741 (FIG. 3B). Cell viability was characterized using a SRB assay. Values are the mean+/−SD of six independent experiments.
Five pancreatic ductal cancer cell lines with various degree of differentiation were obtained from American Type Culture Collection (Rockville, USA) and Normal Human Dermal Fibroblasts (NHDF) obtained from PromoCell. BXPC-3 (moderately differentiated) as well as poorly differentiated human pancreatic cancer cell lines, PANC-1 and MIAPaCa-2, have been established from primary tumor. AsPC-1, CAPAN-1 and CFPAC-1 which represent well differentiated cell lines was isolated from ascites and liver metastasis of pancreas adenocarcinoma. All cell lines contain mutation in P53 whereas K-ras mutation reported in all with the exception of BxPc3. BRCA2 mutation just reported in CAPAN-1 cells.
Sulforhodamine B sodium salt (sigma) was used to assess cell viability and IC50 determination of pancreatic cancer cells. […] Cell viability was specified by using plate reader (TECAN) with measuring of absorbance at 570 and 650 nm (background) in treated or untreated 96 well plate.
(The SRB assay estimates cell density from bound dye.)

The test system of experiment [3] is MIAPaCa-2 cells. Briefly: Orthotopic pancreatic tumor mouse model treated with DRD2 antagonists. The conditions noted are these: compared to vehicle. The class given is in vivo, mice. On the procedure:
Two million MIAPaCa-2 cells were resuspended in 10 μL Matrigel (BD Biosciences, San Jose, Calif.) were orthotopically implanted into the tail of the pancreas of 6-week-old Nod scid gamma animals (Jackson Labs, Bar Harbor, Me.) (day 1). When tumors were palpable (day 27), mice were randomized into 2 groups (n=7 in control group and n=9 in haloperidol group) and injected intraperitoneally with either haloperidol (10 mg/kg) or solvent (dimethylsulfoxide [DMSO] control group) for 12 days. The experiment was terminated when control mice appeared moribund. Weight of the animal and final tumor weight and volume were measured.

The subject of experiment [4] is PANC-1 cells. Briefly: Transwell (Boyden chamber) migration assay, PANC-1. The conditions noted are these: PANC-1, Boyden chamber, increasing doses, 4 h. The class given is cell-based, human.
In experiment [5] the test system is MIAPaCa-2 xenograft. Briefly: Combination therapy in NSG mice, MIAPaCa-2 xenograft model. The class given is in vivo. The note with it: i.p. 16 days; pimozide 10 mg/kg daily; gemcitabine 20 mg/kg every 4 days.
Excerpt: Tumor volumes normalized to initial measurement shown in the y-axis every four days following treatment with either vehicle (gray line), the chemotherapeutic gemcitabine (green line), a combination therapy of 2-deoxy-D-glucose, atorvastatin and pimozide (2DG+ATR+Pim, redline), or a combination therapy of 2DG+ATR+Pim and gemcitabine (2DG+ATR+Pim+Gem, red dashed line) (FIG. 12A). […] Tumor weight (FIG. 12C) and volume of samples (FIG. 12D) harvested following treatment with, from left to right, control (Vehicle), 2DG+ATR, Pim alone, Pim+2DG+ATR, Gem alone, 2DG+ATR+Gem, Pim+Gem, or Pim+2DG+ATR+Gem.
NOD severe combined immunodeficiency gamma (NSG) mice were subcutaneously injected in the right flank with five million MIAPaCa-2 cells. Once tumors were detectable (200 mm^3), mice were randomized into 8 groups (5 in each group) and treated through intraperitoneal injection as indicated for 16 days. All drugs were given every day whereas gemcitabine was given every 4 days, alone or in combination. Experiment was terminated when control animals became moribund. The growth of tumors was measured every 4 days. Tumors were harvested and photographed. Tumor weights and volumes were measured.
The efficacy of the combined treatment approach was investigated using a MIAPaCa-2 xenograft model of pancreatic cancer.
The test system of experiment [6] is PANC-1 cells. The experiment can be described thus: Wound healing (scratching) assay for cell migration. Type of experiment: cell-based, human. The conditions noted are these: PANC-1, increasing concentrations, 10 h. The procedure:
PANC-1 cells were plated in the chamber were already attached in 12 well plate and allowed to grow for 24 h. Then, a wound was made in the confluent monolayer by removing the chamber. Cells were exposed to increasing concentration of Pimozide (FIG. 6A) or L741 (FIG. 6B) and vehicle for 10 h. Wound gap closure was measured for each drug concentration by comparing the gap at time 0 h to the one at the time 10 h when the gap closed in negative control and normalized to untreated condition.
PANC-1 cells were seeded into the 35 mm-dish culture-silicon Insert frames from Ibidi where already attached to the 6 well culture plate. When 96-98% confluency was achieved, the insert frames were removed using sterile forceps to reach cell free gap. To create a reference point for subsequent measurements, three different part of the gap was marked on the underside of the plastic. Floating cells and cell debris were washed using PBS, relative culture medium was added to each wells and migration distance was photographed using a Zeiss Axiovert 24 light microscope at zero time in the marked areas. Afterward, the wells were treated by addition of DMSO as control and different increasing concentration of Pim and L741. Plates were then placed into the incubator and the cells were allowed to migrate until the time when the gap for the […] closed (t time). Images were taken from the marked areas again. This assay was performed employing various concentrations of drugs at which maximum 5% viability inhibition was observed after 10 h treatment.

Entries after “also recorded” stand apart in the source; their conditions may differ.

As to `O=c1[nH]c2ccccc2n1C1CCN(CCCC(c2ccc(F)cc2)c2ccc(F)cc2)CC1` [pimozide], in experiment [1], the cell growth entry is reported as “reduced cell growth”. For the same compound, the “cell viability of fibroblasts versus cancer cells” value in experiment [2] is recorded as “not as much to Fibroblast”. Also, in experiment [3], the metastatic dissemination result is “reduces tumor volume, metastasis”. Besides, the tumor volume entry in experiment [3] (haloperidol 10 mg/kg intraperitoneally for 12 days) was “reduces tumor volume”; in experiment [5], “reduced tumor weight and volume”. For the same compound, the migrated cells result in experiment [4] is “significantly reduced migrated cells; also recorded: Dose dependent inhibitory effect”. Besides, the tumor weight entry in experiment [5] was “reduced tumor weight”. Moreover, the “tumor cell migration (wound gap closure)” value in experiment [6] is given as “tumor cell migration was affected”; in experiment [6] (listed as Pimozide), “dose dependent inhibitory effect”.
